Experiments:
BT-549 (Breast Cancer) = test: NCI one dose, BT-549; type: cell-based, human; settings: BT-549, 1.00E-5 Molar one dose
Procedure: (§1) 3.4. Cell Proliferation Assay
(§2) Selected compounds were tested on a panel of 60 human cancer cell lines at the National Cancer Institute (NCI), Germantown, MD, USA. The cytotoxicity studies were conducted using a 48 h exposure protocol using the sulfo-rhodamine B assay.

OVCAR-3 (Ovarian Cancer) = test: NCI one dose, OVCAR-3; type: cell-based, human; settings: OVCAR-3, 1.00E-5 Molar one dose
Procedure: as §1, §2

HCT-15 (Colon Cancer) = test: NCI one dose, HCT-15; type: cell-based, human; settings: HCT-15, 1.00E-5 Molar one dose
Procedure: as §1, §2

HT29 (Colon Cancer) = test: NCI one dose, HT29; type: cell-based, human; settings: HT29, 1.00E-5 Molar one dose
Procedure: as §1, §2

[1] = system: A549/ATCC (Non-Small Cell Lung Cancer); test: NCI one dose, A549/ATCC; type: cell-based, human; settings: 1.00E-5 Molar one dose
Procedure: as §1, §2

[2] = system: NCI-H460 (Non-Small Cell Lung Cancer); test: NCI one dose, NCI-H460; type: cell-based, human; settings: NCI-H460, 1.00E-5 Molar one dose
Procedure: as §1, §2

SNB-75 (CNS Cancer) = test: NCI one dose, SNB-75; type: cell-based, human; settings: SNB-75, 1.00E-5 Molar one dose
Procedure: as §1, §2

CAKI-1 (Renal Cancer) = test: NCI one dose, CAKI-1; type: cell-based, human; settings: CAKI-1, 1.00E-5 Molar one dose
Procedure: as §1, §2

[3] = system: NCI-H322M (Non-Small Cell Lung Cancer); test: NCI one dose, NCI-H322M; type: cell-based, human; settings: 1.00E-5 Molar one dose
Procedure: as §1, §2

HCT-116 (Colon Cancer) = test: NCI one dose, HCT-116; type: cell-based, human; settings: HCT-116, 1.00E-5 Molar one dose
Procedure: as §1, §2

SK-MEL-2 (Melanoma) = test: NCI one dose, SK-MEL-2; type: cell-based, human; settings: SK-MEL-2, 1.00E-5 Molar one dose
Procedure: as §1, §2

SK-MEL-5 (Melanoma) = test: NCI one dose, SK-MEL-5; type: cell-based, human; settings: SK-MEL-5, 1.00E-5 Molar one dose
Procedure: as §1, §2

CCRF-CEM (Leukemia) = test: NCI one dose, CCRF-CEM; type: cell-based, human; settings: 1.00E-5 Molar one dose
Procedure: as §1, §2

OVCAR-4 (Ovarian Cancer) = test: NCI one dose, OVCAR-4; type: cell-based, human; settings: OVCAR-4, 1.00E-5 Molar one dose
Procedure: as §1, §2

[4] = system: panel of 60 human cancer cell lines; test: NCI 60 cell panel one dose screen (whole panel); type: cell-based; set-up: Delta (One Dose Mean Graph): unit not given here; settings: 1.00E-5 Molar one dose; for Range (One Dose Mean Graph): in % (unit assumed); for Mean Growth Percent: mean over tested cell lines
Procedure: as §1
Selected compounds were tested on a panel of 60 human cancer cell lines at the National Cancer Institute (NCI), Germantown, MD, USA. The cytotoxicity studies were conducted using a 48 h exposure protocol using the sulfo-rhodamine B assay. […]
X. NCI One Dose Mean Graph of sulfides 4a(A -J) and 4b(A-J)
The entire series of sulfides regrouping twenty synthesized FTI-candidates (4aA-J, 4bA-J) were selected by the National Cancer Institute (NCI) for evaluation of their antiproliferative activity against 60 cancer cell lines (see the followings twenty pages for full evaluation reports). […]
inhibiting 36% of the NCI-H522 cells. Such difference between IC50 on human FTase in the nanomolar range and IC50 on cancer cell growth in the micromolar range is characteristic to potent FTIs and was reported previously on different series of compounds (see for example ref erence in the references part […]
Of interest, none of the tested compounds at a high single dose (10 µM) in the full NCI 60 cell panel has shown a cytotoxic profile. […]
inhibitory potential on FTase raise good hope for further investigation of these series as agents fighting

RXF 393 (Renal Cancer) = test: NCI one dose, RXF 393; type: cell-based, human; settings: RXF 393, 1.00E-5 Molar one dose
Procedure: as §1, §2

SF-539 (CNS Cancer) = test: NCI one dose, SF-539; type: cell-based, human; settings: SF-539, 1.00E-5 Molar one dose
Procedure: as §1, §2

[5] = system: NCI/ADR-RES (Ovarian Cancer); test: NCI one dose, NCI/ADR-RES; type: cell-based, human; settings: 1.00E-5 Molar one dose
Procedure: as §1, §2

U251 (CNS Cancer) = test: NCI one dose, U251; type: cell-based, human; settings: U251, 1.00E-5 Molar one dose
Procedure: as §1, §2

MOLT-4 (Leukemia) = test: NCI one dose, MOLT-4; type: cell-based, human; settings: MOLT-4, 1.00E-5 Molar one dose
Procedure: as §1, §2

K-562 leukaemia cells = test: NCI one dose, K-562; type: cell-based, human; settings: for Growth Percent: K-562, 1.00E-5 Molar one dose
Procedure: as §1, §2

HCC-2998 (Colon Cancer) = test: NCI one dose, HCC-2998; type: cell-based, human; settings: HCC-2998, 1.00E-5 Molar one dose
Procedure: as §1, §2

SF-295 (CNS Cancer) = test: NCI one dose, SF-295; type: cell-based, human; settings: SF-295, 1.00E-5 Molar one dose
Procedure: as §1, §2

SW-620 (Colon Cancer) = test: NCI one dose, SW-620; type: cell-based, human; settings: SW-620, 1.00E-5 Molar one dose
Procedure: as §1, §2

SK-OV-3 (Ovarian Cancer) = test: NCI one dose, SK-OV-3; type: cell-based, human; settings: SK-OV-3, 1.00E-5 Molar one dose
Procedure: as §1, §2

SF-268 (CNS Cancer) = test: NCI one dose, SF-268; type: cell-based, human; settings: SF-268, 1.00E-5 Molar one dose
Procedure: as §1, §2

OVCAR-5 (Ovarian Cancer) = test: NCI one dose, OVCAR-5; type: cell-based, human; settings: OVCAR-5, 1.00E-5 Molar one dose
Procedure: as §1, §2

[6] = system: NCI-H23 (Non-Small Cell Lung Cancer); test: NCI one dose, NCI-H23; type: cell-based, human; settings: NCI-H23, 1.00E-5 Molar one dose
Procedure: as §1, §2

SK-MEL-28 (Melanoma) = test: NCI one dose, SK-MEL-28; type: cell-based, human; settings: SK-MEL-28, 1.00E-5 Molar one dose
Procedure: as §1, §2

DU-145 (Prostate Cancer) = test: NCI one dose, DU-145; type: cell-based, human; settings: DU-145, 1.00E-5 Molar one dose
Procedure: as §1, §2

A498 (Renal Cancer) = test: NCI one dose, A498; type: cell-based, human; settings: A498, 1.00E-5 Molar one dose
Procedure: as §1, §2

| SMILES | Growth Percent (BT-549 (Breast Cancer)) [%] | Growth Percent (OVCAR-3 (Ovarian Cancer)) [%] | Growth Percent (HCT-15 (Colon Cancer)) [%] | Growth Percent (HT29 (Colon Cancer)) [%] | Growth Percent [1] [%] | Growth Percent [2] [%] | Growth Percent (SNB-75 (CNS Cancer)) [%] | Growth Percent (CAKI-1 (Renal Cancer)) [%] | Growth Percent [3] [%] | Growth Percent (HCT-116 (Colon Cancer)) [%] | Growth Percent (SK-MEL-2 (Melanoma)) [%] | Growth Percent (SK-MEL-5 (Melanoma)) [%] | Growth Percent (CCRF-CEM (Leukemia)) [%] | Growth Percent (OVCAR-4 (Ovarian Cancer)) [%] | Delta (One Dose Mean Graph) [4] | Range (One Dose Mean Graph) [4] | Mean Growth Percent [4] [%] | Growth Percent (RXF 393 (Renal Cancer)) [%] | Growth Percent (SF-539 (CNS Cancer)) [%] | Growth Percent [5] [%] | other results |
| --- | --- | --- | --- | --- | --- | --- | --- | --- | --- | --- | --- | --- | --- | --- | --- | --- | --- | --- | --- | --- | --- |
| C[C@@]12SC[C@@H](C(=O)NCc3ccccc3Br)N1C(=O)c1ccccc12 [4bB] | 107.51 | 111.49 | 95.65 | 83.02 | 77.15 | 103.30 | 92.47 | 79.18 | 99.70 | 104.70 | 85.75 | 90.98 | 88.50 | 80.04 | 17.49 | 36.16 | 93.03 | 96.88 | 90.78 | 94.45 | Growth Percent (U251 (CNS Cancer)): 91.25%; Growth Percent (MOLT-4 (Leukemia)): 82.96%; Growth Percent (K-562 leukaemia cells): 80.28%; Growth Percent (HCC-2998 (Colon Cancer)): 97.16%; Growth Percent (SF-295 (CNS Cancer)): 92.26%; Growth Percent (SW-620 (Colon Cancer)): 103.50%; Growth Percent (SK-OV-3 (Ovarian Cancer)): 88.35%; Growth Percent (SF-268 (CNS Cancer)): 96.91%; Growth Percent (OVCAR-5 (Ovarian Cancer)): 93.99%; Growth Percent [6]: 91.89%; Growth Percent (SK-MEL-28 (Melanoma)): 104.28%; Growth Percent (DU-145 (Prostate Cancer)): 101.37%; Growth Percent (A498 (Renal Cancer)): 75.85% |
| C[C@@]12SC[C@@H](C(=O)NCc3cccc(C(F)(F)F)c3)N1C(=O)c1ccccc12 [4bD] | 100.02 | 109.46 | 95.74 | 78.21 | 77.57 | 109.48 | 93.18 | 80.18 | 100.14 | 87.94 | 85.25 | 101.35 | 89.45 | 89.60 | 25.48 | 41.72 | 94.41 | 105.49 | 99.59 | 100.57 | Growth Percent (U251 (CNS Cancer)): 94.94%; Growth Percent (MOLT-4 (Leukemia)): 75.84%; Growth Percent (K-562 leukaemia cells): 81.47%; Growth Percent (HCC-2998 (Colon Cancer)): 110.65%; Growth Percent (SF-295 (CNS Cancer)): 92.24%; Growth Percent (SW-620 (Colon Cancer)): 108.66%; Growth Percent (SK-OV-3 (Ovarian Cancer)): 97.14%; Growth Percent (SF-268 (CNS Cancer)): 102.43%; Growth Percent (OVCAR-5 (Ovarian Cancer)): 104.21%; Growth Percent [6]: 99.06%; Growth Percent (SK-MEL-28 (Melanoma)): 108.59%; Growth Percent (DU-145 (Prostate Cancer)): 108.47%; Growth Percent (A498 (Renal Cancer)): 85.48% |
| COc1cc(CNC(=O)[C@@H]2CS[C@@]3(C)c4ccccc4C(=O)N23)cc(OC)c1OC [4bJ] | 107.75 | 112.40 | 105.84 | 82.56 | 83.12 | 105.78 | 97.50 | 89.81 | 99.71 | 98.10 | 89.27 | 102.14 | 90.73 | 97.02 | 27.08 | 43.64 | 95.84 | 98.72 | 98.24 | 101.60 | Growth Percent (U251 (CNS Cancer)): 82.69%; Growth Percent (MOLT-4 (Leukemia)): 81.24%; Growth Percent (K-562 leukaemia cells): 71.92%; Growth Percent (HCC-2998 (Colon Cancer)): 95.49%; Growth Percent (SF-295 (CNS Cancer)): 103.92%; Growth Percent (SW-620 (Colon Cancer)): 100.88%; Growth Percent (SK-OV-3 (Ovarian Cancer)): 103.62%; Growth Percent (SF-268 (CNS Cancer)): 101.09%; Growth Percent (OVCAR-5 (Ovarian Cancer)): 102.06%; Growth Percent [6]: 96.92%; Growth Percent (SK-MEL-28 (Melanoma)): 103.28%; Growth Percent (DU-145 (Prostate Cancer)): 108.72%; Growth Percent (A498 (Renal Cancer)): 90.55% |
| COc1ccc(CNC(=O)[C@@H]2CS[C@@]3(C)c4ccccc4C(=O)N23)cc1OC [4bI] | 110.79 | 110.84 | 112.46 | 77.04 | 79.51 | 103.23 | 110.74 | 89.36 | 96.18 | 95.39 | 79.40 | 88.12 | 81.76 | 91.78 | 38.86 | 57.76 | 93.56 | 104.59 | 99.30 | 100.18 | Growth Percent (U251 (CNS Cancer)): 93.58%; Growth Percent (MOLT-4 (Leukemia)): 76.47%; inhibition at 10 µM (K-562 leukaemia cells; Homo sapiens, K562, 10 µM single dose, read-out: inhibition of growth of K-562 leukaemia cells): 34%; Growth Percent (K-562 leukaemia cells): 66.10%; Growth Percent (HCC-2998 (Colon Cancer)): 96.29%; Growth Percent (SF-295 (CNS Cancer)): 102.29%; Growth Percent (SW-620 (Colon Cancer)): 101.58%; Growth Percent (SK-OV-3 (Ovarian Cancer)): 103.22%; Growth Percent (SF-268 (CNS Cancer)): 99.31%; Growth Percent (OVCAR-5 (Ovarian Cancer)): 111.28%; Growth Percent [6]: 82.91%; Growth Percent (SK-MEL-28 (Melanoma)): 104.89%; Growth Percent (DU-145 (Prostate Cancer)): 103.50%; Growth Percent (A498 (Renal Cancer)): 83.43% |
